Laboratory results as given in patent US20120010161A1, “NOVEL AZAPEPTIDE OR AZAPEPTIDOMIMETIC COMPOUNDS INHIBITING BCRP AND/OR P-GP” (CENTRE NATIONAL DE LA RECHERCHE SCIENTIFIQUE, priority 2009, published 2012).
Entries after “also recorded” stand apart in the source; their conditions may differ.

Assays:
ABCG2 = test: Estimation of the level of expression of ABCG2 (western blot); type: cell-based, human; conditions: 5 μM, 3 h to 72 h
Procedure: Estimation of the level of expression of ABCG2. The cells HEK293 pcDNA3.1 or HEK293 pcDNA3.1 BCRP are seeded in sixteen 6 cm^2 Petri dishes and incubated for 24 hours at 37° C. under 5% CO2. After this incubation, the various wells are supplemented with 30 μL either of DMSO (controls) or of compound IA.2 dissolved in DMSO, corresponding to a final concentration after dilution of 5 μM. After 3 h, 24 h, 48 h or 72 h of incubation, the cells are trypsinized and centrifuged at 200 g for 5 minutes. The protein fraction is extracted with a hypotonic lysis buffer (10 mM Tris-Cl pH 7.5, 10 mM NaCl, 1 mM MgCl2, 1 mM DTT, protease inhibitors) and assayed with bicinchoninic acid (Sigma-Aldrich). Ten micrograms of this fraction are deposited on polyacrylamide gel of Laemmli type (U. K. Laemmli, Nature 1970, 227, 680) to separate the proteins, which are then transferred onto polyvinyl fluoride (pvdf) membrane for 60 minutes at 100 mA in a 10 mM CAPS pH 11.1 […] buffer, 10% methanol (Sigma-Aldrich). The pvdf membrane is then saturated for 30 minutes in a solution of powdered skimmed milk at 1% (w/v) in TBST buffer (Tris buffer saline 1×, Tween 20 0.1%). […] Revelation is performed using the “immobilon western” kit (Millipore) with the QuantityOne software (Biorad). […]

NIH-3T3 cells = test: Cytotoxicity on cell growth, MTT test; type: cell-based; conditions: 72 hours
Procedure: The cells are seeded (10 000 cells/well) in 96-well plates and incubated for 24 hours at 37° C. under 5% CO2. Varied concentrations of mitoxantrone (from 0 to 20 μM in a constant final volume of 100 μL) are then added with an equal volume of each of the test compounds. The cells are then left to divide for 72 hours. The cytotoxicity is evaluated colorimetrically with 3-(4,5-dimethylthiazol-2-yl)-2,5-diphenyltetrazolium bromide (MTT).
Increasing concentrations of compound (IB.1) are applied to NIH-3T3 cells expressing or not expressing ABCB1, and whose residual vitality is evaluated after 72 hours of treatment by an MTT test. The results are illustrated in FIG. 9, in which the cells expressing ABCB1 are represented by empty circles, and those not expressing it by solid circles. […] It increases by 30-40% thereafter, but however remains limited to this value, up to a concentration equivalent to 40 times its IC50, whether or not ABCB1 is expressed.

For `CC(C)(C)OC(=O)NN(C(=O)N[C@@H](CCCCNC(=O)OCc1ccccc1)C(=O)OC(C)(C)C)c1cccc(C(=O)OCc2ccccc2)c1` [IA.2, tert-Butyl ester of (2S)-6-(benzyloxycarbonylamino)-2-[1-(3′-(benzyloxycarbonyl)phenyl)-2-(tert-butoxycarbonyl)hydrazino-carbonylamino]hexanoic acid], the “level of expression of ABCG2” value (ABCG2; HEK293 BCRP cells, vs DMSO) was “reduces the level of expression; also recorded: decrease in the level of expression” and the “level of expression of tubulin (control protein)” value (ABCG2; HEK293 cells) was “without affecting”.
`CC(C)(C)OC(=O)N[C@H](CNN(CCCCCCNC(=O)OCc1ccccc1)C(=O)OC(C)(C)C)CC(=O)OCc1ccccc1` [IB.1, Benzyl ester of (3S)-4-[2-(6-benzyloxycarbonylaminohexyl)-2-tert-butoxycarbonylhydrazino]-3-tert-butoxycarbonylaminobutyric acid] was tested, and the “increase of cytotoxicity on NIH-3T3 cells” value (NIH-3T3 cells; above 5 times and up to 40 times its IC50, expressing or not ABCB1) was 30-40%, the “harmlessness on NIH-3T3 cells” value (NIH-3T3 cells; cells expressing or not ABCB1) was “harmlessness” and the “cytotoxicity on NIH-3T3 cells” value (NIH-3T3 cells; up to 5 times its IC50) was “negligible”.
